Measured values reported in patent US8853418B2, “Cyclopentylpyrazoles as N-type calcium channel blockers” (Janssen Pharmaceutica NV, priority 2012, dated 2014).
Like-named read-outs stand apart in the source and are kept apart here.

Assays:
[1] = biological target: N-type calcium channel (α1B (Cav2.2), β3 and α2δ subunits) (Homo sapiens, UniProt Q00975); assay: Functional Assay: Antagonism of N-Type Calcium Channel (FDSS calcium mobilization, KCl depolarization); format: cell-based; conditions: for IC50: HEK cell line, 50 mM KCl depolarization, six-point concentration-response, read-out: FDSS IC50
How it was run: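 HEK cells stably co-expressing α1B (Cav2.2), β3 and α2δ were loaded with calcium dye, then given compound with fluorescence recorded for 5 min before 50 mM KCl depolarisation and 3 min more reading. IC50 came from six-point curves of maximal fluorescence, normalised to KCl maximum and buffer minimum.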

[2] = biological target: N-type calcium channel (Homo sapiens, UniProt Q00975); assay: Automated Electrophysiology Assay (QPatch-HT whole-cell patch clamp; low- and high-frequency stimulation); format: cell-based
[3] = high-frequency stimulation (15th pulse), read-out: QPatch at High Frequency % Inhibition
[4] = low frequency, read-out: QPatch at Low Frequency % Inhibition

Chain of N-type calcium channel (Q00975 whole entry): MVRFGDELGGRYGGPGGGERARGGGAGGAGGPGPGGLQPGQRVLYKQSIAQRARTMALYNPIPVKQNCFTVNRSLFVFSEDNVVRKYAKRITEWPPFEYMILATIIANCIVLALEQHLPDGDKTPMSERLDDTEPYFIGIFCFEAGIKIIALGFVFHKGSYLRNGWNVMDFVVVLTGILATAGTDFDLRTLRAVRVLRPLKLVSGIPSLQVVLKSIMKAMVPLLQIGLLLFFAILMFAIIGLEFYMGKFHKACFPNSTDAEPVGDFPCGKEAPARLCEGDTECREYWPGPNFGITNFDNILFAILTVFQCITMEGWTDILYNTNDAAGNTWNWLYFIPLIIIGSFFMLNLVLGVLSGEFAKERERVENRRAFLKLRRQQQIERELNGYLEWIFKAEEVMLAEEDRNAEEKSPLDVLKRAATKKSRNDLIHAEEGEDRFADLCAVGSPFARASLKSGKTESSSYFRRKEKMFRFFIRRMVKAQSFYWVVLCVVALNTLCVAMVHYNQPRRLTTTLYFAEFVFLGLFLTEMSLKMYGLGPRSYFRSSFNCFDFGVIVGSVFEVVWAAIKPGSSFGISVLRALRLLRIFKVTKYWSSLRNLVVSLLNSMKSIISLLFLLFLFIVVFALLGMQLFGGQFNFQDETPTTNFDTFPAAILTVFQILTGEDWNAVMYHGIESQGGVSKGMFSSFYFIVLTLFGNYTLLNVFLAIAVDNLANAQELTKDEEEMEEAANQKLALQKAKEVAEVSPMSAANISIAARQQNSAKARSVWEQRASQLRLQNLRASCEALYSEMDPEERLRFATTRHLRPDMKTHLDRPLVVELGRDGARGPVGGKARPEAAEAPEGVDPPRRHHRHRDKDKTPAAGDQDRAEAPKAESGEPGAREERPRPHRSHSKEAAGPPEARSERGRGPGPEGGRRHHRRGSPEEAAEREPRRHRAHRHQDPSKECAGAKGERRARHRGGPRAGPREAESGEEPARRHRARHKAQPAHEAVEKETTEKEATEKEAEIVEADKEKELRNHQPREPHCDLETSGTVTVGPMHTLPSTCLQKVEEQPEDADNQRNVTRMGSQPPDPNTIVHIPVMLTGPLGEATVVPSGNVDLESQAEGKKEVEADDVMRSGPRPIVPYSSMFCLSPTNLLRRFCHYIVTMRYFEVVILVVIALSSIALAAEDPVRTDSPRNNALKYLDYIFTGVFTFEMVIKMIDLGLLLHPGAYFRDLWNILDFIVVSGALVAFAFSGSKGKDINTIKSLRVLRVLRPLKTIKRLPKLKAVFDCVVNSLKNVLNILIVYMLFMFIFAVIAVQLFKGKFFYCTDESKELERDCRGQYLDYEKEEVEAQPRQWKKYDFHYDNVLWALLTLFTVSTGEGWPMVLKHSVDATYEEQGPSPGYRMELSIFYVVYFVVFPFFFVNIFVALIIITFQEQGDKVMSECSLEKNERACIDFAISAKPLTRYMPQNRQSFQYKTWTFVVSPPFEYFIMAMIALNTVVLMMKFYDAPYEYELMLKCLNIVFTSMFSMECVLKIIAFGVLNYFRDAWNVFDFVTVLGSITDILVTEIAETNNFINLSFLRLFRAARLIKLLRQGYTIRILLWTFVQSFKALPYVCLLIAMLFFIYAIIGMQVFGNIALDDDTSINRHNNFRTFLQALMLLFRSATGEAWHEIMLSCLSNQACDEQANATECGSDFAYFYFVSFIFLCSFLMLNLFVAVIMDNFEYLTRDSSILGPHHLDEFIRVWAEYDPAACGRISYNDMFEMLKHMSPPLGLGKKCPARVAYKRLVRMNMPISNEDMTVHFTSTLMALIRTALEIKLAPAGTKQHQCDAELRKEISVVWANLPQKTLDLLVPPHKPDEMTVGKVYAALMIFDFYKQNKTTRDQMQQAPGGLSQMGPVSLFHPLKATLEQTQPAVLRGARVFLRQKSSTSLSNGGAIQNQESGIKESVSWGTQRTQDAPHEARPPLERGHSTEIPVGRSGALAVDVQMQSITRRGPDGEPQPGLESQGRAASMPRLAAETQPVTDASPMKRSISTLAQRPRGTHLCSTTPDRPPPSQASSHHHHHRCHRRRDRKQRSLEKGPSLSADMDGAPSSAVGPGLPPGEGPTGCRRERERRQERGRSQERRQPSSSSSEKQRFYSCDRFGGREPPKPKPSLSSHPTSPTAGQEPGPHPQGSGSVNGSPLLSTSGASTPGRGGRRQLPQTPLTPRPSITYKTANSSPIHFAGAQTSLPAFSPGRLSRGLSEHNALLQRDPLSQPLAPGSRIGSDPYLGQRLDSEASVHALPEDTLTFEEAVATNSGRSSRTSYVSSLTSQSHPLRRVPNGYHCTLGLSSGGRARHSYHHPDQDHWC
Chain of N-type calcium channel (P54284 whole entry partner): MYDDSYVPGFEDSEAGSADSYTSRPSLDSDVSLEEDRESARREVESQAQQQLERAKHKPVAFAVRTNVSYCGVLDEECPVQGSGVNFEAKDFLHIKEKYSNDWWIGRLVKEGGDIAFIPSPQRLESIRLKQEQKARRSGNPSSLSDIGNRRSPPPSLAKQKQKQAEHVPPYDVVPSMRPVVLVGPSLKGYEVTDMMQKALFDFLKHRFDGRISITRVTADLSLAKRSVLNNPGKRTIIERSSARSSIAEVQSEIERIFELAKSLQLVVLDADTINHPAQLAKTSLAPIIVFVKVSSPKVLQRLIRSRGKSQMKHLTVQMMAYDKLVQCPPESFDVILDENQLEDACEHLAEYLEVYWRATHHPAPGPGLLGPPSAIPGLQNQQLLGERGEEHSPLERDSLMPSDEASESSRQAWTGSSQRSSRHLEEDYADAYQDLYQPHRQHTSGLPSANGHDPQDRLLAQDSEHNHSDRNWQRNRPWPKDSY
Chain of N-type calcium channel (P54289 25-946 partner limits assumed): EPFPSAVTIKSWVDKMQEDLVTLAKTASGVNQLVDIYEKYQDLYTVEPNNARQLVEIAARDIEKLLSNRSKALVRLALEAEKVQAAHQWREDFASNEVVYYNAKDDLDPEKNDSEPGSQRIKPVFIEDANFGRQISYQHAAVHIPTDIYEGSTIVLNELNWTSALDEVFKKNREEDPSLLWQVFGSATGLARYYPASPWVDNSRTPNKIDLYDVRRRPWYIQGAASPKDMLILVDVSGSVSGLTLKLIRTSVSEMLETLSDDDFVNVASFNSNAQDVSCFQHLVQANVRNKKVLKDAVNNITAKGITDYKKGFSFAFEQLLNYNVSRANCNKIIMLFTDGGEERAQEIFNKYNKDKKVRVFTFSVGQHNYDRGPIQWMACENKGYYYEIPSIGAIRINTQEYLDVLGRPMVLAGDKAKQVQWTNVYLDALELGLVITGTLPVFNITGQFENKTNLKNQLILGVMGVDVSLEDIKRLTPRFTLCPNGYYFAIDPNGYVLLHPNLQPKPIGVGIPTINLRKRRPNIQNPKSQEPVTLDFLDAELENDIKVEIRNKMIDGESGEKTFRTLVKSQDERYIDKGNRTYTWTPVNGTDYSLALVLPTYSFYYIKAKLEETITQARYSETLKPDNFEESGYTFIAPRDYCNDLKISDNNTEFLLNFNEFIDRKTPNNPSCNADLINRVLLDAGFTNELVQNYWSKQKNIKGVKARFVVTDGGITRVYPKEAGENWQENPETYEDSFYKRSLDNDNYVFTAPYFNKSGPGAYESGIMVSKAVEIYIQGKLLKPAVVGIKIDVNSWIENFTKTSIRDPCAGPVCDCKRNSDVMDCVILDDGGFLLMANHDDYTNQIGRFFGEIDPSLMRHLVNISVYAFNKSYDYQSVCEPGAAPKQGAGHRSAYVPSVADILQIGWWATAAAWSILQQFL
Chain of N-type calcium channel (P54289 947-1103 partner limits assumed): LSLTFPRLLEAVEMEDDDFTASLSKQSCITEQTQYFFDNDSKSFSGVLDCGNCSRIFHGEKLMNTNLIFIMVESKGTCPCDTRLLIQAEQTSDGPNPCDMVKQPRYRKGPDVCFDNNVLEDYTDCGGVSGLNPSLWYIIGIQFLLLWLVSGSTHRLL
Chain of N-type calcium channel (α1B (Cav2.2), β3 and α2δ subunits) (Q00975 whole entry): as the sequence (Q00975 whole entry) above
Chain of N-type calcium channel (α1B (Cav2.2), β3 and α2δ subunits) (P54284 whole entry partner): as the sequence (P54284 whole entry partner) above
Chain of N-type calcium channel (α1B (Cav2.2), β3 and α2δ subunits) (P54289 25-946 partner limits assumed): as the sequence (P54289 25-946 partner limits assumed) above
Chain of N-type calcium channel (α1B (Cav2.2), β3 and α2δ subunits) (P54289 947-1103 partner limits assumed): as the sequence (P54289 947-1103 partner limits assumed) above

inhibition at 0.33 µM [1] [%] | IC50 [1] [nM] | inhibition at 0.1 µM [2, 3] [%] | inhibition at 0.1 µM [2, 4] [%] | inhibition at 1 µM [2, 3] [%] | inhibition at 1 µM [2, 4] [%] | inhibition at 5 µM [2, 3] [%] | inhibition at 5 µM [2, 4] [%] | inhibition at 0.25 µM [2, 3] [%] | inhibition at 0.25 µM [2, 4] [%] | SMILES
89 | 32 | 48 | 42 | – | – | – | – | – | – | CCOc1ccccc1-n1nc2c(c1-c1ccc(Cl)cc1)C[C@@H](NS(=O)(=O)C(C)C)C2 [Compound 44, N-[(5R)-3-(4-chlorophenyl)-2-(2-ethoxyphenyl)-2,4,5,6-tetrahydrocyclopenta[c]pyrazol-5-yl]propane-2-sulfonamide]
97 | 17 | 26 | 13 | – | – | – | – | – | – | COc1ccccc1-n1nc2c(c1-c1ccc(C#N)cc1)C[C@H](n1cc(CC(C)C)nn1)C2 [Compound 127, 4-{(5S)-2-(2-methoxyphenyl)-5-[4-(2-methylpropyl)-1H-1,2,3-triazol-1-yl]-2,4,5,6-tetrahydrocyclopenta[c]pyrazol-3-yl}benzonitrile]
86 | 48 | 12 | -4 | – | – | – | – | – | – | COc1ccccc1-n1nc2c(c1-c1ccc(Cl)cc1)C[C@H](OC(=O)C(C)C)C2 [Compound 81, (5S)-3-(4-chlorophenyl)-2-(2-methoxyphenyl)-2,4,5,6-tetrahydrocyclopenta[c]pyrazol-5-yl 2-methylpropanoate]
99 | 73 | – | – | 28 | 29 | – | – | – | – | COc1ccccc1-n1nc2c(c1-c1ccc(Cl)cc1)CC(CCNS(C)(=O)=O)C2 (stereo not drawn) [Compound 11, N-{2-[3-(4-chlorophenyl)-2-(2-methoxyphenyl)-2,4,5,6-tetrahydrocyclopenta[c]pyrazol-5-yl]ethyl}methanesulfonamide]
– | 28 | 25 | 9 | – | – | – | – | – | – | CCOc1ccccc1-n1nc2c(c1-c1ccc(Cl)cc1)CC(OC(=O)N(C)C)C2 (stereo not drawn) [Compound 30, 3-(4-chlorophenyl)-2-(2-ethoxyphenyl)-2,4,5,6-tetrahydrocyclopenta[c]pyrazol-5-yl dimethylcarbamate]
92 | 3 | 33 | 34 | – | – | – | – | – | – | COc1ccccc1-n1nc2c(c1-c1ccc(N(C)C)cc1)CC1(C2)OC(C)(C)C(C)(C)O1 [Compound 107, 4-[2-(2-methoxyphenyl)-4′,4′,5′,5′-tetramethyl-2,6-dihydro-4H-spiro[cyclopenta[c]pyrazole-5,2′-[1,3]dioxolan]-3-yl]-N,N-dimethylaniline]
– | 43 | – | – | – | – | 85 | 82 | – | – | CCOC(=O)C1Cc2nn(-c3ccccc3OC)c(-c3ccc(Cl)cc3)c2C1 (stereo not drawn) [Compound 5, ethyl 3-(4-chlorophenyl)-2-(2-methoxyphenyl)-2,4,5,6-tetrahydrocyclopenta[c]pyrazole-5-carboxylate]
91 | 19 | 26 | 2 | – | – | – | – | – | – | COc1ccccc1-n1nc2c(c1-c1ccc(Cl)cc1)CC(N1CCC(F)(F)C1)C2 (stereo not drawn) [Compound 123, 3-(4-chlorophenyl)-5-(3,3-difluoropyrrolidin-1-yl)-2-(2-methoxyphenyl)-2,4,5,6-tetrahydrocyclopenta[c]pyrazole]
– | 33 | – | – | 69 | 76 | 97 | 90 | 58 | 54 | COc1ccccc1-n1nc2c(c1-c1ccc(Cl)cc1)CC(CCOC(=O)N1CCOCC1)C2 (stereo not drawn) [Compound 2, 2-[3-(4-chlorophenyl)-2-(2-methoxyphenyl)-2,4,5,6-tetrahydrocyclopenta[c]pyrazol-5-yl]ethyl morpholine-4-carboxylate]
82 | 42 | 3 | -4 | – | – | – | – | – | – | COc1ccccc1-n1nc2c(c1-c1ccc(Cl)cc1)CC1(C2)O[C@H]2CCC[C@@H]2O1 [Compound 113, (3aS,6aS)-3′-(4-chlorophenyl)-2′-(2-methoxyphenyl)-2′,4,5,6,6′,6a-hexahydro-3aH,4′H-spiro[cyclopenta[d][1,3]dioxole-2,5′-cyclopenta[c]pyrazole]]
86 | 10 | 13 | 3 | – | – | – | – | – | – | CCOc1ccc(-c2c3c(nn2-c2ccccc2OC)CC2(C3)OC(C)(C)C(C)(C)O2)cn1 [Compound 108, 3-(6-ethoxypyridin-3-yl)-2-(2-methoxyphenyl)-4′,4′,5′,5′-tetramethyl-2,6-dihydro-4H-spiro[cyclopenta[c]pyrazole-5,2′-[1,3]dioxolane]]
92 | 28 | 42 | 27 | – | – | – | – | – | – | COc1ccccc1-n1nc2c(c1-c1ccc(Cl)cc1)C[C@H](OC1CCCCO1)C2 (stereo partly drawn) [Compound 76, (5S)-3-(4-chlorophenyl)-2-(2-methoxyphenyl)-5-(tetrahydro-2H-pyran-2-yloxy)-2,4,5,6-tetrahydrocyclopenta[c]pyrazole]
97 | 1.2 | 63 | 52 | – | – | – | – | – | – | CCOc1ccccc1-n1nc2c(c1-c1ccc(Cl)cc1)CC(N(C)S(=O)(=O)N(C)C)C2 (stereo not drawn) [Compound 48, N-[3-(4-chlorophenyl)-2-(2-ethoxyphenyl)-2,4,5,6-tetrahydrocyclopenta[c]pyrazol-5-yl]-N,N′,N′-trimethylsulfamide]
83 | 43 | 33 | 22 | – | – | – | – | – | – | COc1ccccc1-n1nc2c(c1-c1ccc(Cl)cc1)C[C@H](OC1CCCCC1)C2 [Compound 88, (5S)-3-(4-chlorophenyl)-5-(cyclohexyloxy)-2-(2-methoxyphenyl)-2,4,5,6-tetrahydrocyclopenta[c]pyrazole]
– | 18 | 22 | 14 | – | – | – | – | – | – | CCOc1ccccc1-n1nc2c(c1-c1ccc(Cl)cc1)CC(OC(=O)N1CCOCC1)C2 (stereo not drawn) [Compound 31, 3-(4-chlorophenyl)-2-(2-ethoxyphenyl)-2,4,5,6-tetrahydrocyclopenta[c]pyrazol-5-yl morpholine-4-carboxylate]
99 | 18 | – | – | 83 | 75 | – | – | – | – | COc1ccccc1-n1nc2c(c1-c1ccc(OC(C)C)nc1)C[C@@H](N(C)S(=O)(=O)N(C)C)C2 [Compound 57, N-{(5R)-2-(2-Methoxyphenyl)-3-[6-(1-methylethoxy)pyridin-3-yl]-2,4,5,6-tetrahydrocyclopenta[c]pyrazol-5-yl}-N,N′,N′-trimethylsulfamide]
– | 15 | 45 | 25 | – | – | – | – | – | – | COc1ccccc1-n1nc2c(c1-c1ccc(Cl)cc1)CC(OC(=O)N(C)C)C2 (stereo not drawn) [Compound 28, 3-(4-chlorophenyl)-2-(2-methoxyphenyl)-2,4,5,6-tetrahydrocyclopenta[c]pyrazol-5-yl dimethylcarbamate]
– | 43 | 21 | -8 | – | – | – | – | – | – | COc1ccccc1-n1nc2c(c1-c1ccc(Cl)cc1)CC(OC(=O)N1CCOCC1)C2 (stereo not drawn) [Compound 29, 3-(4-chlorophenyl)-2-(2-methoxyphenyl)-2,4,5,6-tetrahydrocyclopenta[c]pyrazol-5-yl morpholine-4-carboxylate]
100 | 5.7 | 61 | 48 | – | – | – | – | – | – | COc1ccccc1-n1nc2c(c1-c1ccc(Cl)cc1)C[C@H](OC(C)C)C2 [Compound 67, (5S)-3-(4-chlorophenyl)-2-(2-methoxyphenyl)-5-(1-methylethoxy)-2,4,5,6-tetrahydrocyclopenta[c]pyrazole]
92 | 24 | 60 | 58 | – | – | – | – | – | – | CCOc1ccccc1-n1nc2c(c1-c1ccc(Cl)cc1)CC(n1cc([Si](C)(C)C)nn1)C2 (stereo not drawn) [Compound 41, 3-(4-chlorophenyl)-2-(2-ethoxyphenyl)-5-[4-(trimethylsilyl)-1H-1,2,3-triazol-1-yl]-2,4,5,6-tetrahydrocyclopenta[c]pyrazole]
102 | 5.9 | 28 | -6 | – | – | – | – | – | – | COc1ccccc1-n1nc2c(c1-c1ccc(Cl)cc1)CC1(C2)O[C@H](C)[C@@H](C)O1 [Compound 98, (4′R,5′R)-3-(4-chlorophenyl)-2-(2-methoxyphenyl)-4′,5′-dimethyl-2,6-dihydro-4H-spiro[cyclopenta[c]pyrazole-5,2′-[1,3]dioxolane]]
84 | 19 | 9 | 8 | – | – | – | – | – | – | COc1ccccc1-n1nc2c(c1-c1ccc(C)nc1)CC1(C2)OC(C)(C)C(C)(C)O1 [Compound 109, 2-(2-methoxyphenyl)-4′,4′,5′,5′-tetramethyl-3-(6-methylpyridin-3-yl)-2,6-dihydro-4H-spiro[cyclopenta[c]pyrazole-5,2′-[1,3]dioxolane]]
98 | 8.6 | – | – | 62 | 40 | – | – | – | – | COc1ccccc1-n1nc2c(c1-c1ccc(Cl)cc1)CC(c1cccnc1)C2 (stereo not drawn) [Compound 63, 3-(4-chlorophenyl)-2-(2-methoxyphenyl)-5-pyridin-3-yl-2,4,5,6-tetrahydrocyclopenta[c]pyrazole]
